2 molecules from patent US20220023274A1, “USE OF A BERBERIS AND RESVERATROL MIXTURE TO CONTROL DYSLIPIDEMIA” (priority 2018, published 2022) can be followed below.

Molecules are shown by their SMILES.

For experiment [1], the system named is Low-Density lipoprotein Receptor (LDL-R). Briefly: Transcriptional expression of the LDL receptor in hepatocytes in vitro (Example 1, FIG. 1). It is filed as cell-based. Conditions: 24 hours, Berberine 5 μg/mL, Resveratrol 3 μM, each applied alone, vs CTRL (no treatments). The source says: It could be said that the concentration tested is bio-equivalent to that of Berberine with a concentration of 50% higher than that administered according to the work of Kong et to 2004. (Kong W, Wei J, Abidi P, Lin M, Inaba S, Li C, Wang Y, Wang Z, Si S, Pan H, 10 Wang S, Wu J, Wang Y, Li Z, Liu J, Jiang J D. Berberine is a novel cholesterol-lowering drug working through a unique mechanism distinct from statins. Nat Med. 2004 December; 10(12):1344-51)).
Resveratrol being without effect alone is therefore a synergy, never observed before. The innovation is therefore in having observed a synergy between resveratrol and berberine with resveratrol which enhances the effects of berberine in the expression of LDL-R. The results are summarized in FIG. 1.

Another experiment has as its system LDL cholesterol. Kind of experiment: Case report: LDL cholesterol level under dietary supplementation (Example 9). It is filed as in vivo, human. The following applies: The patient, initial LDL cholesterol 3.91 mM; berberine 500 mg for 1 month; Revifast dosage as in examples 2-5. The method, then:
[…] The patient is […] and is classified borderline for the lipid profile with an LDL cholesterol level of 3.91 mM. In their dietary supplement scheme, they took a berberine 500 mg supplement separately for 1 month, taking lipoprotein levels to 3.4 mM. […] The quantities assumed by […] FG are such that the dosage used is that shown in examples 2-5.

A further experiment concerns plasma LDL concentration. Kind of experiment: Case reports of subjects (n=4): plasma LDL concentration, reduction compared to nontreated condition (FIG. 2). It is filed as in vivo, human. The following applies: n=4 subjects; berberine 500 mg alone or with 48 mg resveratrol (pure, or as 160 mg REVIFAST). The text has this: Information were also collected from case reports of a number of subjects supplemented in their diet substantially as above.
As it can be seen, when the subjects are supplemented with berberine the levels of LDL cholesterol were reduced. […] It is therefore believed that it is the way in which resveratrol is absorbed that influences the synergistic action of resveratrol to reduce LDL cholesterol by berberine.

`Oc1ccc(C=Cc2cc(O)cc(O)c2)cc1` [resveratrol, 3,5,4′-trihydroxystilbene]: the “transcription of the LDL receptor (effect in words)” value in experiment [1] is “no apparent effect”.

Consider `COc1ccc2cc3[n+](cc2c1OC)CCc1cc2c(cc1-3)OCO2` [Berberine], for which the “LDL cholesterol level (plasma concentration)” value in the experiment on LDL cholesterol is given as 3.4 mM. Besides, in the experiment with plasma LDL concentration, the “effect on plasma LDL cholesterol (in words)” value is recorded as “reduced”. Further, the “transcription of the LDL receptor (effect in words)” value in experiment [1] is recorded as “tends to increase”.
